Literature values, collected in US20040166561A1, “Novel intein and uses thereof” (priority 2001, published 2004).

Key:
[1] = tested on: RecA intein from Mycobacterium tuberculosis; conditions: 0.2 mM zinc (6parts/million); in vitro, splicing in trans
[2] = target: T1, naturally split DnaE intein from Synechocystis sp. PCC6803 (Synechocystis sp., UniProt P74750); conditions: 0.2 mM zinc (6parts/million); in vitro, splicing in trans
T1 construct: by the naturally split DnaE intein from Synechocystis sp; PCC6803

In the case of `[Zn+2]` [zinc], the “inhibition of protein splicing” value [1] is listed as 90% and the “inhibition of protein splicing” value [2] is listed as 90%.
